Assay: gradient 5% acetonitrile 3 min, to 50% in 2 min, to 85% in 15 min, held 3 min, 100 µL/min
Details: column: Zorbax Extend-C18 2.1 x 50 mm; eluents: water / acetonitrile, 0.1% formic acid
Procedure, shortened: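 A Zorbax Extend-C18 column (2.1 × 50 mm, 1.8 μm) run at 100 μL/min with water and acetonitrile, both containing 0.1% formic acid, separated mixtures of ~100 pure standards. The HPLC was coupled to a quadrupole time-of-flight mass spectrometer operated in positive and negative ionization mode, with dead and dwell volumes of 40 μL and 900 μL. Each retention time was taken from a computationally picked adduct peak that was then manually inspected.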

SMILES	RP-LC retention time [s]
COc1ccc(S(=O)(=O)N2CC(=O)N(C3CCCC3)C3(CCCCC3)C2)cc1OC	1080
O=c1c2cc(-c3cccs3)nn2ccn1CC(O)c1cccc(Cl)c1 (stereo not given)	924
Cc1ccc2oc(-c3nnc(C(=O)NCCCN4CCOCC4)o3)c(C)c2c1	668
CCOC(=O)C1CCCN(C(=O)CCCSc2ccc(NC(=O)C3CC3)nn2)C1 (stereo not given)	726
Cc1cccc(CNC(=O)c2nc3cccnc3n(CC(C)C)c2=O)c1	580
COc1ccc(C(=O)N2CCc3ccc(C(=O)NCc4ccco4)cc32)cc1	795
CCC(Sc1ccc(NC(=O)c2cccc(F)c2)nn1)C(=O)OC (stereo not given)	890
COc1ccc2ncc(S(=O)(=O)c3ccccc3)c(Nc3ccc4c(c3)OCCO4)c2c1	855
CCc1nc(-c2cc(S(=O)(=O)NCC(=O)N3CCCC3)c(C)s2)no1	787
Cc1ccc(Nc2c(-c3ccc(N4CCOCC4)cc3)nc3ccc(Cl)cn23)cc1	777
CCOC(=O)c1cc(S(=O)(=O)N2CCCC2C(=O)Nc2cccc3c2CCCC3)cn1C (stereo not given)	1060
CC(C)c1c(C2CCN(C(=O)c3ccoc3)CC2)noc1N	674
O=C1CC(c2noc(-c3cc(F)ccc3F)n2)CN1c1ccc(Cl)cc1 (stereo not given)	1020
COC(=O)c1ccc(NC(=O)N2CCCC2c2c(C)noc2C)cc1 (stereo not given)	751
O=C(c1ccc(F)cc1Cl)N1CCN(c2cc(-c3ccc(F)cc3)[nH]n2)CC1	837
N#Cc1c(NC(=O)c2cccnc2)sc2c1CCCCC2	834
CC(=O)N1CCC(C(=O)NCc2c(-c3ccccc3)nc3sc(C)nn23)CC1	729
COc1cc(OC)c(NC(=O)Cn2ccc3sccc3c2=O)cc1Cl	775
CCOC(=O)c1sc2ccccc2c1S(=O)(=O)N1CCN(c2ccccn2)CC1	794
Cc1ccc(NC(=O)Cn2c(=O)n(-c3ccc(F)cc3)c(=O)c3c2cc(C)n3C)c(Cl)c1	946
Cc1cccc(C2CCCN2C(=O)Cn2cc(Cl)cn2)c1 (stereo not given)	866
Cc1cc(C)cc(NC(=O)N2CCCC2c2nc(-c3ccccc3C)no2)c1 (stereo not given)	1110
CCOc1ccccc1NC(=O)CNC(=O)c1c[nH]c2ccccc12	729

SMILES	RP-LC retention time [s]
CC(Cc1ccco1)NC(=O)c1ccc(N2CCCCC2)c(S(=O)(=O)N2CCCCC2)c1 (stereo not given)	1190
O=C(CN1C(=O)CCS(=O)(=O)c2ccccc21)Nc1ccc(C(F)(F)F)cc1	843
O=C(NCc1ccc(F)cc1)C1CCN(S(=O)(=O)c2ccc3[nH]c(=O)sc3c2)CC1	742
Cc1[nH]c2ccccc2c1C(Nc1nc2ccccc2s1)c1ccccn1 (stereo not given)	703
CC(Oc1ccc(=O)n(-c2ccc(F)cc2)n1)C(=O)Nc1ccc(Cl)cc1 (stereo not given)	845
COc1ccccc1NC(=O)NCC(O)c1ccsc1 (stereo not given)	684
COCC(=O)Nc1ccc2c(c1)CN(C(=O)c1ccccc1)CC2	658
Cc1ccn(S(=O)(=O)c2ccc(C(C)(C)C)cc2)n1	983
COc1cccc(NC(=O)CN2C(=O)C3CCCCN3c3ccc(S(=O)(=O)N(C)C)cc32)c1 (stereo not given)	902
C/C=C/c1ccc(OCC(O)CN2CCN(C)CC2)c(OC)c1 (stereo not given)	560
Cc1nc(-c2cccc(C(=O)N3CCCc4ccccc43)c2)no1	900
NS(=O)(=O)c1ccc(CCNC(=O)c2ccc(-n3cnnn3)cc2)cc1	622
CCn1ccc(C(=O)N2CCCC2c2ccc(OC)cc2)n1 (stereo not given)	795
COc1cc(NC(=O)c2cnc(-c3ccccc3)nc2-c2ccncc2)cc(OC)c1	879
COc1ccc(OCc2nc(-c3ccc(-c4csc(C)n4)cc3)no2)cc1	1170
COc1ccc(OC)c(S(=O)(=O)N2CCC(N3C[C@H](OC)[C@@H]3c3cccnc3)CC2)c1	619
C=CCN1C(=O)COc2ccc(-c3nc(NC(=O)CCC4CCCCC4)sc3C)cc21	1220
O=C(Nc1ccc(F)c(Cl)c1)c1cccn1Cc1noc(C2CC2)n1	998
NC(=O)C1CCN(C(=O)C2CCN(S(=O)(=O)Cc3ccc(F)cc3)CC2)CC1	644
COC(=O)c1cc2c(=O)n(-c3ccc(Cl)c(Cl)c3)ccc2nc1C	915
Cc1c(C(=O)C(=O)Nc2ccc3c(c2)OCCO3)c2ccccc2n1C	861
Cc1nnc(N2CCCC(C(=O)NCc3ccccn3)C2)c2nn(-c3ccccc3)c(C)c12 (stereo not given)	566
CCC(C)NC(=O)CCn1c(=O)c2ccccc2n2c(=O)n(Cc3ccccc3)nc12 (stereo not given)	856

SMILES	RP-LC retention time [s]
Cc1cccc(N2CCN(C(=O)c3ccc4c(c3)N(C)C(=O)C3CCCCN43)CC2)c1C (stereo not given)	1170
COc1ccccc1-c1noc(C2CCCN2C(=O)Nc2cccc(C)c2)n1 (stereo not given)	881
COc1ccc(NC(=O)C2CCN(c3nnc4cccc(C)n34)CC2)cc1Cl	700
O=C(NCc1noc(C2CCCC2)n1)c1ccc(F)cc1	798
O=C(Nc1cccc(Br)c1)C1CC(=O)N(c2n[nH]c3cccc(F)c23)C1 (stereo not given)	824
O=C(NC1CCN(Cc2ccccc2)CC1)c1ccc(I)cc1	727
CCCn1c(=O)c(C)nc2cc(-c3noc(-c4ccc(OC)c(OC)c4)n3)ccc21	1090
Cn1c(SCc2ccc([N+](=O)[O-])cc2)nnc1-c1ccc2c(c1)OCO2	721
CCOC(=O)CCNC(=O)N1CCN(Cc2nc3cccnc3n2-c2ccccc2)CC1	590
Cc1cnc(C(=O)NCC2Cn3cccc3C(=O)N2C)cn1 (stereo not given)	595
CCc1nc2cc3c(cc2n1CC(=O)N1C(C)CCCC1C)OCCO3 (stereo not given)	668
Cc1cc(NC(=O)CCS(=O)(=O)c2ccc(F)cc2)n(-c2nc3ccccc3s2)n1	1030
CCCCS(=O)CC(CO)NC(=O)/C=C/c1c(C)[nH]c(=O)[nH]c1=O (stereo not given)	569
Cc1ccc(N2CCC(NC(=O)Nc3ccccc3C(F)(F)F)C2=O)cc1 (stereo not given)	898
O=C(NCCc1cccs1)C1CCN(c2cnn(Cc3ccccc3)c(=O)c2)CC1	765
O=C(NCc1ccccc1Br)c1cn2ccccc2n1	736
Cc1ccn2cc(-c3ccc(NS(=O)(=O)c4ccc(C)c([N+](=O)[O-])c4)cc3)nc2n1	685
Cc1ccn2cc(-c3ccc(NS(=O)(=O)c4ccccc4Cl)cc3)nc2n1	642
COc1ncc(C(=O)NCc2ccc(SC)cc2)cn1	747
COc1ccc(-c2noc(-c3nc(-c4cccnc4)no3)n2)cc1	966
Cc1ccc(S(=O)(=O)N2CCC(c3cc4n(n3)CCCN(C)C4=O)CC2)cc1C	806
CC(C)(C)c1cc(C(=O)NCc2cccnc2)nc2ccnn12	657
Cc1cc(C)nc(SCc2ccc(C(=O)NCCc3c[nH]c4ccccc34)o2)n1	894

SMILES	RP-LC retention time [s]
CC(=O)N1c2ccc(S(=O)(=O)N3CCCCC3)cc2CC1C(=O)NCCC(C)C (stereo not given)	822
COc1cc2c(cc1OC)C(C(=O)Nc1ccc3c(c1)OCCO3)C(c1cccs1)N(C)C2=O (stereo not given)	783
CC(C)OCCCNC(=O)c1nnc(-c2ccc(S(=O)(=O)N3CCCC3)cc2)o1	843
COc1ccc(C2(c3nc(-c4ccc(CNC(=O)C5CC5)s4)no3)CC2)cc1	955
COCC(=O)NC(Cc1ccccc1)c1nnc(N2CCN(C)CC2)o1 (stereo not given)	585
CCn1cc(C(=O)NC(C)c2ccc(OC)c(OC)c2)c(=O)c2ccc(C)nc21 (stereo not given)	885
CCOc1cc(C(=O)NC(C(=O)Nc2nc3ccccc3[nH]2)C(C)C)cc(OCC)c1OCC (stereo not given)	824
CCOC(=O)c1c(C)[nH]c(C)c1S(=O)(=O)N1CCC(C(=O)Nc2ccc(NC(C)=O)cc2)CC1	666
Cc1ccc(NC(=O)Cc2nnc(-c3cnccn3)o2)c(Cl)c1	720
Cc1c(C(=O)O)nnn1-c1ccc2c(c1)OCCO2	638
COc1ccc(OC)c(CNC(=O)C2CCN(c3cnc4nccnc4c3)CC2)c1	680
O=C(CN1CCN(Cc2ccccc2F)C1=O)N1CCN(C2CCCCC2)CC1	613
O=C(c1ccsc1)N1CCC[C@H]1c1nc(C2CCOCC2)n[nH]1	592
Cc1nnc2c(NC(=O)c3ccccn3)cccn12	659
COc1ccccc1-c1nc2nccc(-c3cccnc3)n2n1	655
O=S(=O)(c1cccn2c(SCc3ccc(F)cc3)nnc12)N1CCCC1	829
Cc1ccc(NC(=O)Cn2c(C(C)C)nc3c(c2=O)CCN(Cc2ccccc2)C3)cc1C	761
Cc1ccc(C)c(-n2ccn(Cc3nc(-c4ccc(C(C)(C)C)cc4)no3)c(=O)c2=O)c1	1130
Cc1nc2cc3c(cc2n1CC(=O)NCCc1ccc(F)cc1)OCCO3	646
CC(=O)c1ccc(N2CCN(C(=O)Cn3cccc3-c3nnc(C4CCC4)o3)CC2)cc1	824
CCc1nnc2cc(N3CCN(Cc4cn[nH]c4-c4ccccc4)CC3)cnn12	541

Source: the METLIN SMRT retention time set (Domingo-Almenara et al. 2019)
